Data as given in patent US10973772B2, “Targeted delivery of hydrophilic drugs” (Double Bond Pharmaceuticals AB, priority 2014, dated 2021).
Where a name gives a salt, the structure may show the parent alone. Read-outs that look alike come from different tables or passages of the source.

Legend:
[1] = female, Wistar, rat, in vivo, 5 mg/kg, 2 h
[2] = Californian, rabbit, in vivo, 5 mg/kg, 0.5 h
[3] = In vivo distribution of doxorubicin in the liver of Wistar rats; details: female, rat, intravenous, 5 mg/kg
[4] = In vivo distribution of doxorubicin in Californian rabbit liver; details: intravenous, 5 mg/kg
[5] = Solubility in aqueous ethanol (UV method); format: physicochemical
Procedure: Solubility in aqueous ethanol was determined by centrifuging an adequate amount of freshly obtained colloid at 3000 rpm for 30-90 min, decanting the supernatant, adding 10 mL water and shaking the mixture, then repeating centrifugation, shaking and washing 3 times. The centrifugate from the final centrifugation was air dried for 72 h at room temperature followed by drying in vacuo for 24 h. A portion of the dried centrifugate (20 mg) was resuspended in 6 mL aqueous ethanol by stirring at room temperature for 24 h. The mixture was centrifuged at 3000 rpm for 10 min and the supernatant filtered through a 0.2 micrometer filter to remove aggregates of undissolved solid product. The solubility of the compound was determined by a UV method.

[6] = rabbit ear vein; 1.25 mg doxorubicin/kg vs 5.0 mg doxorubicin/kg doxorubicin hydrochloride
Procedure: FIG. 9 are graphs illustrating doxorubicin concentration in the liver and the heart upon intravenous injection of 5 mg/kg aqueous doxorubicin hydrochloride and of 1.25 mg/kg of the composition of the invention according to Example 1.
The doxorubicin composition of the invention according to Example 1 (R═C16 sulfonate) was administered to Californian rabbits by injection into the ear vein at a concentration of 1.25 mg doxorubicin/kg body weight. For comparison aqueous doxorubicin hydrochloride was administered in the same manner at a concentration of 5.0 mg doxorubicin/kg body weight.

Increase of doxorubicin concentration in liver tissue [1] | Increase of doxorubicin concentration in liver tissue [2] | concentration at 2 h [3] | concentration at 0.5 h [4] | Solubility ([5]; colloid doxorubicin alkyl sulfates and alkane sulfonates in 30% ethanol (v/v)) | Solubility in 30% ethanol ([5]; doxorubicin salts, 30% ethanol (Table 5)) | Delivery of doxorubicin to the heart versus aqueous doxorubicin hydrochloride [6] | Efficiency of delivery of doxorubicin to the liver versus aqueous doxorubicin hydrochloride [6] | Compound
(1) times | (1) times | 11.5 ± 2.98 ng/g | 0.392 ± 0.128 ng/g |  |  |  |  | COc1cccc2c1C(=O)c1c(O)c3c(c(O)c1C2=O)C[C@@](O)(C(=O)CO)C[C@@H]3O[C@H]1C[C@H](N)[C@H](O)[C@H](C)O1 [Cl^−, doxorubicin hydrochloride]
 |  |  |  | 0.01194 mg/mL | 0.01194 mg/mL | no difference | about four | CCCCCCCCCCCCCCCCS(=O)(=O)O.COc1cccc2c1C(=O)c1c(O)c3c(c(O)c1C2=O)C[C@@](O)(C(=O)CO)C[C@@H]3O[C@H]1C[C@H](N)[C@H](O)[C@H](C)O1 [doxorubicin alkane sulfonate n=16]
